Read-outs that look alike come from different tables or passages of the source.
Columns and labels:
PA-TU-8902 cells = assay: Non-anchorage-dependent cell growth inhibition (spheroid 3D culture), PA-TU-8902; assay type: cell-based, human; conditions: Homo sapiens, PaTu 8902, 144 h, read-out: PA-TU-8902 IC50
Summary of the method: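 Human pancreatic lines (PA-TU-8902 KRAS G12V, AsPC-1 G12D, MIA PaCa-2 G12C) grown as spheroids at 5×10^2 cells/well in low-adhesion round-bottom plates; MIA PaCa-2 in RPMI-1640 with 10% FBS. Compounds added next day (6-9 points, 3 μM to 0.3 nM final) for six days at 37 °C, 5% CO2. CellTiter-Glo luminescence, IC50 by Sigmoid-Emax regression versus DMSO and cell-free controls.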

AsPC-1 cells = assay: Non-anchorage-dependent cell growth inhibition (spheroid 3D culture), AsPC-1; assay type: cell-based; conditions: Homo sapiens, ASPC1, 144 h, read-out: AsPC-1 IC50
Protocol: (§1) Test Example 3: Evaluation of Non-Anchorage-Dependent Cell Growth Inhibitory Activity on Human KRAS G12V Mutant-Positive Pancreatic Cancer Line PA-TU-8902, Human KRAS G12D Mutant-Positive Pancreatic Cancer Line AsPC-1 or Human KRAS G12C Mutant-Positive Pancreatic Cancer Line MIA PaCa-2
(§2) The non-anchorage-dependent cell growth inhibitory activities of subject compounds were evaluated by spheroid 3D cell culture.
(§3) PA-TU-8902 cells, AsPC-1 cells or MIA PaCa-2 cells (RIKEN BRC, RCB2094) were seeded at 36 µL/well on a low-cell-adhesive round bottom 384-well plate (Prime Surface: from Sumitomo Bakelite) to give 5×10^2 cells per well. The PA-TU-8902 cells were under the same conditions as in Test Example 1-1, and the AsPC-1 cells were under the same conditions as in Test Example 1-2. For the MIA PaCa-2 cells, RPMI-1640 medium containing 10% fetal bovine serum was used in the presence of 5% CO2 at 37° C.
(§4) The next day, the subject compounds (6-9 points having final concentrations in the range of 3 μM to 0.3 nM) and DMSO, which was the solvent for the subject compounds, as a negative control were diluted 100-fold with a fresh medium and were each added at 4 μL per well. After culturing in the presence of 5% CO2 at 37° C. for six days, CellTiter-Glo 2.0 (from Promega) was added at 20 μL per well. After stirring with a plate mixer (from FINEPCR) at normal temperature for an hour, the luminescent signals were measured with ARVO X3 (from PerkinElmer).
(§5) With the signaling value in treatment with DMSO taken as 0% inhibition and with the signaling value in the medium alone without cells taken as 100% inhibition, the 50% inhibition values (IC50) were calculated by Sigmoid-Emax model nonlinear regression analysis.

MIA PaCa-2 cells = assay: Non-anchorage-dependent cell growth inhibition (spheroid 3D culture), MIA PaCa-2; assay type: cell-based; conditions: Homo sapiens, MIA PaCa-2, 144 h, read-out: MIA PaCa-2 IC50
Protocol: as §1, §2, §3, §4, §5

RAS G12V = target: T1, RAS G12V (Homo sapiens, UniProt P01116, G12V); assay: RAS G12V degradation activity, Cell ELISA, PA-TU-8902; assay type: cell-based; conditions: PA-TU-8902 cells, 24 hours, 100% = Example compound 17 at 1 μM; read-out: DC50 (RAS G12V 50% degradation value)
T1 construct: host or cells: PA-TU-8902 human pancreatic cancer cells
Protocol: Test Example 1-1: Evaluation of RAS G12V Degradation Activity on Human KRAS G12V Mutant-Positive Pancreatic Cancer Line PA-TU-8902
The RAS G12V degradation activities of subject compounds were evaluated by measuring the expression levels of RAS G12V by a Cell ELISA method.
PA-TU-8902 cells (DSMZ, ACC 179) were seeded at 36 μL per well on a 384-well plate (from Greiner bio-one) to give 1.5×10^4 cells per well. As for the cell culture conditions, DMEM medium (from Sigma-Aldrich) containing 10% fetal bovine serum (from Cytiva) was used in the presence of 5% CO2 at 37° C.
The next day, the subject compounds (10 points having final concentrations in the range of 3 μM to 0.1 nM), Example compound 17 of a final concentration of 1 μM as a positive control and dimethyl sulfoxide (DMSO), which was the solvent for the subject compounds, as a negative control were diluted 100-fold with a fresh medium and were each added at 4 μL per well, followed by culturing for 24 hours.
The next day, the culture supernatant was removed, and a 4% paraformaldehyde phosphate buffer solution (from FUJIFILM Wako) was added at 20 μL per well. The plate was allowed to stand for 30 minutes at room temperature to thus immobilize the cells. Then, the supernatant was removed, and 0.1% Triton X-100 (from Amersham Biosciences)-containing Phosphate buffered saline (PBS) was added at 20 μL per well. After allowing the plate to stand at room temperature for 10 minutes, the supernatant was removed, and the wells were washed twice in total by adding PBS at 25 μL per well and removing the supernatant. The washing operations below were performed in the same manner. Next, the supernatant was removed, and 0.5% sodium dodecyl sulfate (SDS; from ThermoFisher Scientific)-containing PBS was added at 20 μL per well. After allowing the plate to stand at room temperature for 10 minutes, the plate was centrifuged to remove the supernatant. After washing with PBS, the supernatant was removed by centrifugation, and a blocking solution (PVDF Blocking Reagent for Can Get Signal; from TOYOBO) was added at 20 μL per well. After allowing the plate to stand for 30 minutes at room temperature, the supernatant was removed by centrifugation, and a solution obtained by diluting an anti-Ras (G12V Mutant Specific) antibody (Ras (G12V Mutant Specific) (D2H12) Rabbit mAb; from Cell Signaling Technology; 500-fold dilution) and an anti-3-actin antibody (Anti-beta Actin antibody; from Abcam; 5,000-fold dilution) with Can Get Signal Solution 2 (from TOYOBO) was added at 15 μL per well as primary antibodies. The plate was allowed to stand overnight at 4° C.
The next day, the supernatant was removed by centrifugation, and the plate was washed with PBS. The supernatant was removed by centrifugation, and a solution obtained by diluting an anti-rabbit IgG antibody (IRDye 800CW Goat anti-Rabbit IgG; from LI-COR Biosciences) and an anti-mouse IgG antibody (IRDye 680RD Donkey anti-Mouse IgG; from LI-COR Biosciences) 1,000-fold with Can Get Signal Solution 2 was added at 15 μL per well as secondary antibodies. After allowing the plate to stand at room temperature for an hour, the supernatant was removed by centrifugation, and the plate was washed with PBS. After removing the supernatant, the plate was dried as it was with air at room temperature for two hours or more, and the 700-nm and 800-nm fluorescent signals were measured with Aerius (from LI-COR Biosciences).
With the RAS G12V signaling value at the time of addition of DMSO corrected with the signaling value of 3-actin taken as 0% and with the RAS G12V signaling value at the time of addition of Example compound 17 of a final concentration of 1 μM taken as 100%, the RAS G12V degradation rates were calculated. The 50% degradation values (DC50) were calculated by Sigmoid-Emax model nonlinear regression analysis.

[1] = KRAS G12V mutant-positive, 3D spheroid, six days, CellTiter-Glo 2.0
[2] = KRAS G12D mutant-positive, 3D spheroid, six days, CellTiter-Glo 2.0
[3] = KRAS G12C mutant-positive, 3D spheroid, six days, CellTiter-Glo 2.0

T1 sequence (P01116 1-188 isoform P01116-2 G12V): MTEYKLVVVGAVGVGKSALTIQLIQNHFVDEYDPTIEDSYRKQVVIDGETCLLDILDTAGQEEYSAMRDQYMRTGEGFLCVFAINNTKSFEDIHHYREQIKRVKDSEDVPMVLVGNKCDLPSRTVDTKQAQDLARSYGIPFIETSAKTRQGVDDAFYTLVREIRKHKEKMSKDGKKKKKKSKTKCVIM

| SMILES | IC50 (PA-TU-8902 cells; [1]) [nM] | IC50 (AsPC-1 cells; [2]) [nM] | IC50 (MIA PaCa-2 cells; [3]) [nM] | DC50 (RAS G12V) [nM] | IC50 (PA-TU-8902 cells) [nM] | IC50 (AsPC-1 cells) [nM] | IC50 (MIA PaCa-2 cells) [nM] |
| --- | --- | --- | --- | --- | --- | --- | --- |
| CO[C@@H](C)COc1cc(OC2CN(C(=O)N3CC(CN(C)C)C3)C2)c2cc(C3CC3)c(-c3c(C)c(F)cc4[nH]ncc34)c(OCc3ccc(-c4cn([C@H](C(=O)N5C[C@H](O)C[C@H]5C(=O)N[C@@H](CO)c5ccc(-n6cncn6)cc5)C(C)C)nn4)cc3)c2n1 (atropisomer, axis not shown; (M)) [Example 5, (4R)-1-[(2S)-2-(4-{4-[({(7M)-6-cyclopropyl-4-[(1-{3-[(dimethylamino)methyl]azetidine-1-carbonyl}azetidin-3-yl)oxy]-7-(6-fluoro-5-methyl-1H-indazol-4-yl)-2-[(2S)-2-methoxypropoxy]quinolin-8-yl}oxy)methyl]phenyl}-1H-1,2,3-triazol-1-yl)-3-methylbutanoyl]-4-hydroxy-N-{(1R)-2-hydroxy-1-[4-(1H-1,2,4-triazol-1-yl)phenyl]ethyl}-L-prolinamide] | 29 | 8 | 5 | 26 |  |  |  |
| CO[C@@H](C)COc1cc(OC2CN(C(=O)NCCN(C)C)C2)c2cc(C3CC3)c(-c3c(C)c(F)cc4[nH]ncc34)c(OCc3ccc(-c4cn([C@H](C(=O)N5C[C@H](O)C[C@H]5C(=O)N[C@@H](CO)c5ccc(-n6cncn6)cc5)C(C)C)nn4)cc3)c2n1 (atropisomer, axis not shown; (M)) [Example 12, (4R)-1-[(2S)-2-(4-{4-[({(7M)-6-cyclopropyl-4-[(1-{[2-(dimethylamino)ethyl]carbamoyl}azetidin-3-yl)oxy]-7-(6-fluoro-5-methyl-1H-indazol-4-yl)-2-[(2S)-2-methoxypropoxy]quinolin-8-yl}oxy)methyl]phenyl}-1H-1,2,3-triazol-1-yl)-3-methylbutanoyl]-4-hydroxy-N-{(1R)-2-hydroxy-1-[4-(1H-1,2,4-triazol-1-yl)phenyl]ethyl}-L-prolinamide] | 36 | 17 | 20 | 37 |  |  |  |
| CO[C@@H](C)COc1cc(OC2CN(C(=O)C3CN(C)C3)C2)c2cc(C3CC3)c(-c3c(C)c(F)cc4[nH]ncc34)c(OCc3ccc(-c4cn([C@H](C(=O)N5C[C@H](O)C[C@H]5C(=O)N[C@@H](CO)c5ccc(-n6cncn6)cc5)C(C)C)nn4)cc3)c2n1 (atropisomer, axis not shown) [Example 42] |  |  |  | 30 | 32 | 10 | 9 |
| Cc1ncsc1-c1ccc([C@H](CO)NC(=O)[C@@H]2C[C@@H](O)CN2C(=O)[C@H](C(C)C)n2cc(-c3ccc(COc4c(-c5c(C)c(F)cc6[nH]ncc56)c(C5CC5)cc5c(NC6CN(c7ncccn7)C6)nc(OC6CCOCC6)nc45)cc3)nn2)cc1 [Example 15, (4R)-1-[(2S)-2-{4-[4-({[(7M)-6-cyclopropyl-7-(6-fluoro-5-methyl-1H-indazol-4-yl)-2-[(oxan-4-yl)oxy]-4-{[1-(pyrimidin-2-yl)azetidin-3-yl]amino}quinazolin-8-yl]oxy}methyl)phenyl]-1H-1,2,3-triazol-1-yl}-3-methylbutanoyl]-4-hydroxy-N-{(1R)-2-hydroxy-1-[4-(4-methyl-1,3-thiazol-5-yl)phenyl]ethyl}-L-prolinamide] | 161 | 126 | 6 | 89 |  |  |  |
| Cc1ncsc1-c1ccc([C@H](CO)NC(=O)[C@@H]2C[C@@H](O)CN2C(=O)[C@H](C(C)C)n2cc(-c3ccc(COc4c(-c5c(C)c(F)cc6[nH]ncc56)c(C5CC5)cc5c(NCc6cccnc6)nc(OC6CCOCC6)nc45)cc3)nn2)cc1 [Example 29] | 63 | 25 | 5 | 8 |  |  |  |
| CO[C@@H](C)COc1nc(NC2CN(C(=O)O[C@H]3C[C@@H](N(C)C)C3)C2)c2cc(C3CC3)c(-c3c(C)c(F)cc4[nH]ncc34)c(OCc3ccc(-c4cn([C@H](C(=O)N5C[C@H](O)C[C@H]5C(=O)N[C@@H](CO)c5ccc(N6CCOC6=O)cc5)C(C)C)nn4)cc3)c2n1 (atropisomer, axis not shown) [Example 4] | 72 | 38 | 22 | 45 |  |  |  |
| CO[C@@H](C)COc1nc(N2CCOCC2)c2cc(C3CC3)c(-c3c(C)c(F)cc4[nH]ncc34)c(OCc3ccc(-c4cn([C@H](C(=O)N5C[C@H](O)C[C@H]5C(=O)N[C@@H](CO)c5ccc(-c6scnc6C)cc5)C(C)C)nn4)cc3)c2n1 (atropisomer, axis not shown) [Example 21] | 60 | 43 | 11 | 35 |  |  |  |
